Assays:
Format in all cases: in vivo
[1] = test system: Musca domestica strain WHO-N; assay: Musca domestica test (MUSCDO surface treatment & contact assay); conditions: 24 hours after contact, read-out: efficacy (mortality); for mortality at 20 mg/m2: surface concentration 20 mg/m^2, exposure 30 minutes; for mortality at 4 mg/m2: surface concentration 4 mg/m^2, exposure 30 minutes
Procedure: Musca domestica Test (MUSCDO Surface Treatment & Contact Assay)
Solvent: Aceton+2000 ppm rapeseed oil methyl ester (RME)
In order to produce a sufficient, active ingredient containing solution it is necessary to solve the test compound in the solvent-mix (acetone at 2 mg/ml/RME 2000 ppm). This solution is pipetted onto a glazed tile and after evaporation of the acetone, adult flies of the species Musca domestica strain WHO—N are placed onto the dried surface. The exposure time is 30 minutes. Mortality in percent (%) is determined 24 hours after contact of the insects to the treated surface. 100% mortality means that all tested insects are dead, whereas 0% means that no insect died.

[2] = test system: green peach aphid (Myzus persicae); assay: Myzus persicae oral test; conditions: 120 h, application rate 4 ppm, after 5 days
Method in brief: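 Five-day oral feeding assay measuring percent mortality of a mixed aphid population that draws compound-containing sugared IPL41 medium through sealing parafilm; the test preparation derives from 1 part compound per 100 parts acetone, diluted with water.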

[3] = test system: adult engorged female ticks (Rhipicephalus microplus); assay: Rhipicephalus (Boophilus) microplus injection test; conditions: 168 h, egg deposition after 7 days, read-out: activity (efficacy: infertile eggs); for pest or weed control at 4 pg: application rate 4 pg/animal; for pest or weed control at 0.02 mg: application rate 20 μg/animal
Method in brief: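 Abdominal injection, 1 μL compound/DMSO, n=5 engorged adult females; climate-chamber incubation. Readout d7: fertile egg laying; doubtful eggs held to hatch (~42 d). % efficacy = infertile eggs (100% all infertile).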

[4] = test system: adult unfed cat fleas (Ctenocephalides felis); assay: Ctenocephalides felis oral test; conditions: 48 h, read-out: activity (mortality)
Method in brief: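 About 20 adult unfed fleas fed through parafilm on cattle blood containing compound (DMSO stock diluted in blood), blood held at 37 °C and fleas at room temperature. Mortality (%) scored after 2 days.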

[5] = test system: Rhipicephalus microplus larvae (strain Parkhurst, resistant against synthetic pyrethroids); assay: Rhipicephalus (Boophilus) microplus in-vitro contact test, larval cattle tick; conditions: after 48 hours, read-out: activity (efficacy: larvae dead or moribund); for pest or weed control at 100 g/ha: application rate 1 pg/cm^2 (=100 g/ha); for pest or weed control at 500 g/ha: application rate 5 pg/cm^2 (=500 g/ha)
Method in brief: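 Larvae (20-50 per tube) exposed to dry compound film on glass tube walls, 5 μg/cm^2 at 900 ppm, applied from acetone. After 48 h at 27° C./85% RH, tubes tapped and negative geotaxis scored; efficacy as percent dead or moribund larvae.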

[6] = test system: adult brown dog ticks (Rhipicephalus sanguineus); assay: Rhipicephalus sanguineus in-vitro contact test, adult brown dog ticks; conditions: after 48 hours, read-out: activity (efficacy: ticks dead or moribund); for pest or weed control at 5 µg/cm2, 500 g/ha: application rate 5 μg/cm^2 (=500 g/ha); for pest or weed control at 100 g/ha: application rate 1 pg/cm^2 (=100 g/ha)
Method in brief: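 Contact exposure: dried compound film inside glass tubes, dose 5 μg/cm^2 at 900 ppm, 5-10 adults per tube at room temperature. Scored at 48 h via a heat-escape test on a 45-50° C plate for up to 5 min.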

[7] = test system: fall armyworm larvae (Spodoptera frugiperda); assay: Spodoptera frugiperda spray test; conditions: 168 h, read-out: activity (mortality)
Method in brief: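 Larvae of fall armyworm placed on dried maize leaf sections previously sprayed with emulsified compound (acetone/DMF solvent, water with 1000 ppm emulsifier). Percent of caterpillars killed recorded on day 7, 0–100% scale.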

[8] = test system: larvae of the banded cucumber beetle (Diabrotica balteata); assay: Diabrotica balteata spray test; conditions: 168 h, after 7 days, read-out: activity (efficacy: seedlings grown); for pest or weed control at 100 g/ha: application rate 100 g/ha (=32 pg/well); for pest or weed control at 500 g/ha: application rate 500 g/ha (=160 pg/well)
Method in brief: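 Read-out is % efficacy at day 7, 0% meaning no seedling growth and 100% growth equal to uninfested untreated controls. Test solutions (acetone/DMF concentrate diluted with water carrying 1000 ppm emulsifier) were sprayed onto 1-day-germinated wheat seeds, 5 per well, before infestation with 10-20 larvae.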

[9] = test system: Aedes aegypti strain MONHEIM; assay: Aedes aegypti test (AEDSAE surface treatment & contact assay); conditions: 24 hours after contact, read-out: efficacy (mortality); for mortality at 4 mg/m2: surface concentration 4 mg/m^2, exposure 30 minutes; for mortality at 20 mg/m2: surface concentration 20 mg/m^2, exposure 30 minutes
Method in brief: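 Percent mortality was read 24 h after adult MONHEIM mosquitoes were held for 30 min on a tile treated with compound. Compound applied from acetone solution (2 mg/ml) containing 2000 ppm rapeseed oil methyl ester, after evaporation.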

[10] = test system: adult cat fleas (Ctenocephalides felis); assay: Ctenocephalides felis in-vitro contact test, adult cat flea; conditions: application rate 5 μg/cm^2 (=500 g/ha), after 48 hours, read-out: activity (efficacy: fleas dead or moribund)
Procedure: Ctenocephalides felis—In-Vitro Contact Tests Adult Cat Flea
9 mg compound is solved in 1 mL acetone and diluted with acetone to the desired concentration. 250 μL of the test solution is filled in 25 mL glass test tubes and homogeneously distributed on the inner walls by rotation and tilting on a shaking device (2 h at 30 rpm). With a compound concentration of 900 ppm, an inner surface of 44.7 cm^2 and a homogeneous distribution, a dose of […] is achieved.
After the solvent has evaporated, each test tube is filled with 5-10 adult cat fleas (Ctenocephalides felis), closed with a perforated lid and incubated in a lying position at room temperature and relative humidity. After 48 hours efficacy is determined. The fleas are patted on the ground of the tubes and are incubated on a heating plate at 45-50° C. for at most 5 minutes. Immotile or uncoordinated moving fleas, which are not able to escape the heat by climbing upwards, are marked as dead or moribund.
An efficacy of 100% means all fleas are dead or moribund; 0% means no fleas are dead or moribund.

[11] = test system: green peach aphid (Myzus persicae); assay: Myzus persicae spray test; conditions: 120 h, after 5 days; for mortality at 500 g/ha: application rate 500 g/ha; for mortality at 100 g/ha: application rate 100 g/ha
Method in brief: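 Chinese cabbage leaf disks carrying all instars of M. persicae sprayed with compound in acetone/DMF, diluted in water with 1000 ppm alkylarylpolyglycol ether emulsifier. Percent mortality scored after 5 days (100% = all aphids killed).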

[12] = test system: larvae of the southern green stink bug (Nezara viridula); assay: Nezara viridula spray test; conditions: 96 h, after 4 days; for mortality at 100 g/ha: application rate 100 g/ha; for mortality at 500 g/ha: application rate 500 g/ha
Method in brief: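 Larva-infested barley (Hordeum vulgare) plants received a spray of test solution prepared from an acetone/DMF concentrate diluted in emulsifier-containing water (1000 ppm). Percent kill read 4 days later; 0% means no stink bugs dead.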

| Structure (SMILES) | mortality at 20 mg/m2 [1] [%] | mortality at 4 ppm [2] [%] | pest or weed control at 4 pg [3] [%] | pest or weed control at 0.02 mg [3] [%] | mortality at 100 ppm [4] [%] | pest or weed control at 100 g/ha [5] [%] | pest or weed control at 500 g/ha [5] [%] | pest or weed control at 5 µg/cm2, 500 g/ha [6] [%] | mortality at 100 g/ha [7] [%] | pest or weed control at 100 g/ha [8] [%] | pest or weed control at 100 g/ha [6] [%] | mortality at 4 mg/m2 [9] [%] | pest or weed control at 5 µg/cm2 [10] [%] | mortality at 500 g/ha [11] [%] | mortality at 100 g/ha [12] [%] | mortality at 500 g/ha [12] [%] | pest or weed control at 500 g/ha [8] [%] | mortality at 100 g/ha [11] [%] | other results |
| --- | --- | --- | --- | --- | --- | --- | --- | --- | --- | --- | --- | --- | --- | --- | --- | --- | --- | --- | --- |
| C[C@H](NC(=O)c1cc(Cl)cc(S(=O)(=O)CC(F)(F)F)c1)c1nc(C2CC2)nn1-c1ccc(C#N)cn1 [I-13] | 80 to 100 | 90 | 100 | 100 | 90 | – | – | – | – | – | – | – | – | – | – | – | – | – | – |
| CCS(=O)(=O)c1cc(C(=O)N[C@@H](C)c2nc(C3CC3)nn2-c2ccc(C#N)cn2)cc(C(F)(F)F)c1 [I-19] | 80 to 100 | 100 | 100 | 100 | 90 | 100 | 100 | 80 | 100 | 80 | – | – | – | – | – | – | – | – | mortality at 4 mg/m2 [1]: 80 to 100% |
| C[C@H](NC(=O)c1cc(Cl)cc(C2(C#N)CC2)c1)c1nc(C2CC2)nn1-c1ccc(C#N)cn1 [I-36] | 80 to 100 | – | 100 | – | 100 | 100 | 100 | 80 | 100 | 100 | 100 | 80 to 100 | – | – | – | – | – | – | mortality at 4 mg/m2 [1]: 80 to 100%; mortality at 20 mg/m2 [9]: 80 to 100% |
| C[C@H](NC(=O)c1cc(Cl)cc(C2(C#N)CC2)c1)c1ncnn1-c1cc(C#N)ccn1 [II-4] | – | 100 | 100 | 100 | 100 | – | – | – | 83 | 100 | – | 80 to 100 | 80 | 90 | 100 | 100 | 100 | – | mortality at 20 mg/m2 [9]: 80 to 100% |
| C[C@H](NC(=O)c1cc(C#N)cc(S(C)(=O)=O)c1)c1ncnn1-c1ccc(C#N)cn1 [II-9] | – | 100 | 100 | 100 | 100 | 80 | 80 | – | – | 100 | – | 80 to 100 | 90 | 90 | 100 | 100 | 100 | 90 | mortality at 500 g/ha [7]: 100% |
| Cc1nc([C@H](C)NC(=O)c2cc(Cl)cc(S(=O)(=O)C(F)(F)F)c2)n(-c2ccc(C#N)cn2)n1 [II-15, 3-chloro-N-{(1S)-1-[1-(5-cyanopyridin-2-yl)-3-methyl-1H-1,2,4-triazol-5-yl]ethyl}-5-[(trifluoromethyl)sulfonyl]benzamide] | – | 100 | 100 | 100 | 100 | 100 | 100 | – | 100 | 100 | – | – | 90 | 90 | – | 100 | 100 | – | mortality at 500 g/ha [7]: 100% |
| C[C@H](NC(=O)c1cc(Br)cc(S(C)(=O)=O)c1)c1ncnn1-c1ccc(C#N)cn1 [II-41] | – | 100 | 100 | 100 | 100 | 100 | 100 | 100 | 100 | 100 | 100 | – | 100 | – | 100 | – | – | 100 | – |
| C[C@H](NC(=O)c1cc(Cl)cc(C2(C#N)CC2)c1)c1ncnn1-c1ncc(Cl)cn1 [II-55] | – | 100 | 100 | – | 100 | 100 | 100 | 100 | 100 | 100 | 100 | – | 100 | – | 100 | – | – | 100 | – |

Reference: US20260206761A1, “HETEROARYL-TRIAZOLE COMPOUNDS AS PESTICIDES” (Bayer Aktiengesellschaft, priority 2019, published 2026)
